# Data reported in patent publication US20130143929A1, “FUNGICIDAL IMIDAZOLES” (EI DU PONT DE NEMOURS AND COMPANY, priority 2010, published 2013).
# Marks after values point to notes of the source that are not given here.
# Experiments:
# Format in all cases: in vivo
# [1] = tested on: Blumeria graminis f. sp. tritici (also known as Erysiphe graminis f. sp. tritici, the causal agent of wheat powdery mildew); assay: Test D: wheat powdery mildew, preventive spray on wheat seedlings, visual disease rating; conditions: wheat powdery mildew, preventive spray on wheat seedlings
# Outline: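 Compound suspended in acetone/water (50/50) with 250 ppm Trem 014 and sprayed to run-off on wheat seedlings (200 ppm ≈ 800 g/ha), then inoculated next day with spore dust. Disease rated visually after 8 days at 20 °C as % control relative to untreated plants (0-100).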
# [2] = tested on: Puccinia recondite f. sp. tritici (the causal agent of wheat leaf rust); assay: Test A: wheat leaf rust, preventive spray on wheat seedlings, visual disease rating; conditions: wheat leaf rust, preventive spray on wheat seedlings
# Outline: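 Wheat seedlings were sprayed to run-off with compound suspended in acetone/water containing 250 ppm Trem 014 (200 ppm ≈ 800 g/ha; some at 40 ppm). Puccinia recondite spores were inoculated the next day. Plants were held 24 h saturated at 20° C, then 7 days at 20° C, and disease control was rated visually on a 0–100 scale against controls.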
# [3] = tested on: Botrytis cinerea (the causal agent of tomato Botrytis); assay: Test C: tomato Botrytis, preventive spray on tomato seedlings, visual disease rating; conditions: tomato Botrytis, preventive spray on tomato seedlings
# Outline: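 Test suspension (acetone/water with 250 ppm Trem 014; 200 ppm equivalent to 800 g/ha) sprayed to run-off on tomato seedlings; B. cinerea spores inoculated next day. After 48 h saturated humidity at 20° C then 3 days at 24° C, disease rated visually as % control relative to untreated controls (0–100).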
# [4] = tested on: Septoria tritici (the causal agent of wheat leaf blotch); assay: Test B: wheat leaf blotch, preventive spray on wheat seedlings, visual disease rating; conditions: wheat leaf blotch, preventive spray on wheat seedlings
# Outline: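 Wheat seedlings sprayed to run-off with compound suspension (acetone/water with 250 ppm Trem 014; 200 ppm ≈ 800 g/ha, some at 40 ppm), inoculated next day with Septoria tritici spores. 48 h saturated humidity at 24 °C, then 19 days at 20 °C; visual rating, 100 = full control.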
# [5] = no asterisk (standard test suspension concentration, not 40 ppm)
# [6] = asterisk: 40 ppm test suspension
Structure (SMILES),"Test D rating (100 = 100% disease control, 0 = no disease control relative to the controls) [1, 5] [%]","Test A rating (100 = 100% disease control, 0 = no disease control relative to the controls) [2, 5] [%]","Test C rating (100 = 100% disease control, 0 = no disease control relative to the controls) [3, 5] [%]","Test B rating (100 = 100% disease control, 0 = no disease control relative to the controls) [4, 5] [%]","Test C rating (100 = 100% disease control, 0 = no disease control relative to the controls) [3, 6]","Test D rating (100 = 100% disease control, 0 = no disease control relative to the controls) [1, 6]","Test A rating (100 = 100% disease control, 0 = no disease control relative to the controls) [2, 6]","Test B rating (100 = 100% disease control, 0 = no disease control relative to the controls) [4, 6]"
OC(c1ccc(F)cc1Cl)c1c(Cl)nc(C2CC2)n1-c1c(F)cccc1Br (centres unmarked) [compound 151],64,74,0,100,–,–,–,–
OC(c1ccc(F)cc1F)c1cnc(C2CC2)n1-c1c(F)cccc1Br (centres unmarked) [compound 152],0,74,0,0,–,–,–,–
COc1cc(F)c(C(O)c2c(Cl)nc(C)n2-c2ccc(F)cc2Cl)c(F)c1 (centres unmarked) [compound 153],94,100,–,100,99* %,–,–,–
OC(c1ccc(F)cc1F)c1c(Cl)nc(Cl)n1-c1c(F)cc(Cl)cc1F (centres unmarked) [compound 154],–,–,–,–,100* %,89* %,100* %,100* %
Cc1nc(Cl)c(C(O)c2c(F)cc(F)cc2F)n1-c1ccc(F)cc1Br (centres unmarked) [compound 155],0,100,99,100,–,–,–,–
Cc1nc(Cl)c(C(O)c2c(F)cc(Cl)cc2F)n1-c1ccc(F)cc1Cl (centres unmarked) [compound 156],0,98,16,92,–,–,–,–
Cc1cc(Cl)ccc1C(O)c1c(Cl)nc(C)n1-c1c(F)cccc1F (centres unmarked) [compound 159],–,–,–,–,99* %,97* %,99* %,100* %
Cc1cc(Cl)ccc1C(O)c1c(Br)nc(C)n1-c1c(F)cccc1F (centres unmarked) [compound 161],–,–,–,–,94* %,84* %,92* %,100* %
Cc1nc(Cl)n(-c2ccc(F)cc2F)c1C(O)c1ccc(F)cc1F (centres unmarked) [compound 162],98,100,100,100,–,–,–,–
Cc1nc(Cl)n(-c2ccc(F)cc2F)c1C(O)c1ccc(Cl)cc1 (centres unmarked) [compound 163],13,98,100,100,–,–,–,–
Cc1cc(C#N)ccc1C(O)c1c(Cl)nc(C)n1-c1c(F)cccc1F (centres unmarked) [compound 164],–,–,–,–,0* %,0* %,93* %,100* %
